Data on three compounds can be found in patent US6319910A, “Method for inhibiting cyclooxygenase-2 and tumor necrosis factor alpha” (Hospital for Joint Diseases, priority 1998, dated 2001).

“Also recorded” adds a separate entry of the source. Like-named read-outs stand apart in the source and are kept apart here.

Assay [1] concerns RAW 264.7 cells. Nature of the assay: PGE2 production/accumulation in LPS-stimulated RAW 264.7 cells. It counts as cell-based, murine. As to the method: (§1) Murine macrophages (RAW 263.7 cells) which were grown in Dulbecco's modified eagle medium (DMEM) containing 10% fetal bovine serum, 2 mM glutamine, 50 U/ml penicillin and 50 μg/ml streptomycin, were stimulated with 100 ng/ml LPS to induce both NOS and COX-2 at 16 hr. […] The data presented in FIG. 1 represents mean±SD as examined by T test were n=3.
(§2) The effects of CMTs 1, 2, 3, 5 and 8 on PGE2 and NO accumulation in RAW 264.7 cells were further evaluated as described above for CMT-3. […]

The test system of assay [2] is RAW 264.7 cells. Nature of the assay: Nitrite (NO) production/accumulation in LPS-stimulated RAW 264.7 cells. Conditions: LPS 100 ng/ml, 16 hours. It counts as cell-based, murine. As to the method:
as §1, §2

Assay [3] deals with bovine chondrocytes. Nature of the assay: PGE2 production in LPS stimulated bovine chondrocytes (radioimmunoassay). It counts as cell-based. Conditions: FIGS. 3 and 9, words; for Effect on PGE2 production: LPS 100 μg/ml, 72 hrs. As to the method:
After 48 hours the medium was changed and the cells were incubated with CMT-3 or N-monomethyl arginine (NMMA) for 2 hours before stimulating them with 100 μg/ml LPS. DMSO was used as a carrier for the modulators and the DMSO concentration was maintained (<0.01% v/v) in the cultures. Equivalent amounts of DMSO was also added to the control cultures. The levels of COX-2 dependent PGE2 release was assayed after 72 hrs by radioimmunoassay. […] The data represents mean±SD which was evaluated by T test where n=3.

Assay [4] relates to bovine chondrocytes. Nature of the assay: Nitrite (NO) production in LPS stimulated bovine chondrocytes. Conditions: FIGS. 3 and 9; LPS 100 μg/ml; words. The class given is cell-based.
Assay [5] has as its system OA-affected cartilage. Kind of assay: Spontaneous PGE2 release by OA-affected cartilage (ex vivo organ culture). It counts as cell-based, human. Conditions: for Effect on PGE2 production: human OA-affected cartilage, words. Here is the method: (§3) Human osteoarthritis affected cartilage spontaneously release nitric oxide (NO) and PGE2 in the medium as previously reported (Amin et al, 1995a; 1997a). The OA-organ cultures were set up as described (Amin et al, 1995a; 1997a). Briefly, total knee articular cartilage from tibial plateau and femoral condyle were harvested from OA-affected patients. The cartilage was mixed and cut into 3-mm discs and 4-6 discs were placed in triplicate or quadruplicate, in a 24-well plate in 2.0 ml of Ham's F-12 medium supplemented with 0.2% endotoxin free human albumin, 10 mM Hepes pH 7.4 and antibiotics in the presence of various modulators, as previously described (Amin et al, 1995a; 1997a). CMT-8 was used at pharmacologically relevant concentrations in DMSO (<0.01% final concentration) as carrier. An equivalent amount of DMSO was also added in the control cultures.
(§4) The p value between control and CMT-8 treated values for PGE2≤0.1 (insignificant) whereas the p values between NMMA treated cartilage and CMT-8 treated cartilage was ≤0.001 (significant). The data are represented as mean±SD as examined by T test when n=3. Data represent±SD value as determined by Student's t test n=4. The P values described are compared with control unstimulated OA-cartilage. The data represents one of the two similar experiments. P values for PGE2 and Nitrite=^a≤0.5; ^b≤0.1; ^c≤0.05; ^d≤0.01.

Assay [6] has as its system OA-affected cartilage. Nature of the assay: Spontaneous nitrite/nitric oxide release by OA-affected cartilage (ex vivo organ culture). The class given is cell-based, human. Conditions: for Effect on NO production: human OA-affected cartilage, words. Here is the method:
as §3, §4

A further assay concerns TNFα. Nature of the assay: TNFα release in the medium by HEK 293 cells permanently transfected with human proTNFα (ELISA). The class given is cell-based. Conditions: words; for Effect on spontaneous TNFα release: FIG. 8, 16 hours. As to the method:
HEK 293 cells were transfected with the proTNFα cDNA (wild) to prepare a stable cell line. […] A mutant form of proTNFα cDNA which could not be cleaved by the endogenous TNFα convertase (TACE) to release soluble TNFα was also transfected in separate human HEK 293 cells. The soluble TNFα was estimated by ELISA from the wild type and mutant transfected cells from the medium (FIG. 6).
HEK 293 cells were grown as previously described by American Type Culture Collection (ATCC). […] The HEK 293 cells were incubated with CMT-3 to examine the effects of CMT-3 on TNFα release in the medium.
HEK 293 cells were grown under the conditions previously described by ATCC. Various compounds, including CMT-3 and doxycycline/minocyclines were incubated with proTNFα transfected HEK 293 cells releasing TNFα in the medium at 16 hours. […] Soluble TNFα was estimated by ELISA from the medium.
(ELISA stands for enzyme-linked immunosorbent assay.)

Assay [7] concerns the target T1, COX-2 (Mus musculus, UniProt Q05769).
T1 construct: using total unfractionated cell extracts; endogenous in cells; host or cells: RAW 264.7 cells, LPS-induced; cell-free extract
T1 sequence (Q05769 18-604): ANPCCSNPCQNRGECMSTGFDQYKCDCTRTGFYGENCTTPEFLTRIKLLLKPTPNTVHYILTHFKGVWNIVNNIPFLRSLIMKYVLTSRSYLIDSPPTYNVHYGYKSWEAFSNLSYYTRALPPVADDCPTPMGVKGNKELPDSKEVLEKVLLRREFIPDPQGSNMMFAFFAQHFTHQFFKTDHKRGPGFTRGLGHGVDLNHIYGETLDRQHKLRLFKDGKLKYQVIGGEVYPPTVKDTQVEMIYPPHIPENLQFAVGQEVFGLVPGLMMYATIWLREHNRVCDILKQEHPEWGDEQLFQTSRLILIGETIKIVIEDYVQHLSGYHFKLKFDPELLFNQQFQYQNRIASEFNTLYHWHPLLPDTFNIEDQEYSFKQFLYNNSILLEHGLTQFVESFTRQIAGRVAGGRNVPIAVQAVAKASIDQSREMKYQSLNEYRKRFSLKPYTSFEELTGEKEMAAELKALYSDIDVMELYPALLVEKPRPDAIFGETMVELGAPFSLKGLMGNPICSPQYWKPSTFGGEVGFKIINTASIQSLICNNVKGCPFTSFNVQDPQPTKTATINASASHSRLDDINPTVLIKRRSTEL
Kind of assay: COX-2 specific activity in cell-free extracts of LPS-stimulated RAW 264.7 cells (PGE2 by RIA). It counts as biochemical, murine. As to the method: Raw 264.7 cells were stimulated with LPS and cell-free extracts were prepared as follows. RAW 264.7 cells were induced with LPS (100 ng/ml) in the presence or absence of tetracyclines or hydrocortisone for 14-20 hours. Following induction, the cells were pelleted at 4° C. and resuspended in Tris buffer: 10 mM, pH 7.4 containing 10 μg/ml each of chymostatin, antipain, leupeptin and pepstatin, 1 mM DDT and 1 mM PMSF. Cells were lysed in a Polytron PA 1200 homogenizer (Kinematica AG, Switzerland) with the cocktail of protease inhibitors after 3 cycles of rapid freeze-thawing. The lysate was centrifuged at 18,000 at 4° C. in an eppendorf centrifuge, and the resulting supernatant was used as cell-free extracts. The protein was measured by BCA assay reagent (Pierce, Rockford, Ill.) using BSA as standard. […] The specific enzyme activity was defined as ng of PGE2 released/mg protein/37° C. for 20 minutes.
RAW 264.7 cells were stimulated with 1 μg/ml of LPS for 16 hours and cell-free extracts were prepared as described above. The extracts were incubated with different modulators for 20 minutes at 37° C. before adding the substrate to initiate the enzyme reaction, which was terminated after 30 minutes by heat inactivation. The data represent one of the two experiments, the PGE2 analysis from each sample was done in triplicates n=3. The p value is a comparison between control and experimentals.

Assay [8] has as its system COX-2. Nature of the assay: COX-2 expression in cells/cartilage (general statement). To be noted: words. It counts as cell-based.
For a further assay, the system named is iNOS mRNA. Conditions: Amin et al, 1997b; words; cited from earlier work.
The conditions of assay [9]: words; cited from earlier work.
Assay [10] concerns OA-affected cartilage. Conditions: Amin et al, 1997a; words; cited from earlier work.
Assay [11] has as its system OA-affected cartilage. Conditions: Amin et al, 1997a; words; cited from earlier work. The source holds these as a separate data set.
For a further assay, the system named is NOS. Conditions: background; words; cited from earlier work.
In another assay the test system is OA. To be noted: prophylactic administration; Yu et al (1992); words; cited from earlier work.

One may read the inhibition as the percentage by which the read-out fell short of the control. The low end stands for a response near the control, the high end for a response far below the control. Regarding `C[C@H]1c2cccc(O)c2C(O)=C2C(=O)[C@]3(O)C(O)=C(C(N)=O)C(=O)C[C@@H]3[C@@H](O)[C@@H]21` [CMT-8, 6-α-deoxy-5-hydroxy-4-dedimethylaminotetracycline], the PGE2 accumulation was determined as 27.2 ± 3.4 ng/mL in the assay on RAW 264.7 cells [1] (16 h, 10 ug/mL) and 24.3 ± 4.5 ng/mL in the assay on RAW 264.7 cells [1] (Experiment II, LPS 100 ng/ml, compound 10 μg/ml, 16 hours). In addition, the Nitrite is 36.0 µM in the assay with RAW 264.7 cells [2] (Experiment I, compound 10 μg/ml) and 47.0 ± 22.0 µM in the assay with OA-affected cartilage [6] (Table 2, 5 μg/ml). The inhibition at 10 µg/mL in the assay with RAW 264.7 cells [2] (Mus musculus, RAW264.7, 16 h, Experiment I, compound 10 μg/ml) was 28%. Besides, the “Effect on PGE2 production” value in the assay with bovine chondrocytes [3] is “inhibit NO and PGE2 production”; with OA-affected cartilage [5] it was “inhibits PGE2 in a dose dependent manner; also recorded: significantly inhibit; also recorded: inhibited both NO and PGE2 production; also recorded: inhibits COX-2 expression and PGE2 production”. The “Effect on L-NMMA induced PGE2 up-regulation” value with bovine chondrocytes [3] is recorded as “inhibits the L-NMMA induced PGE2 up-regulation”. In addition, the “Effect on NO production” value with bovine chondrocytes [4] is “inhibit NO and PGE2 production”; in the assay with OA-affected cartilage [6], “inhibits NOS and NO production; also recorded: significantly inhibit; also recorded: inhibited both NO and PGE2 production; also recorded: inhibiting NO production”. Moreover, the inhibition at 5 µg/mL in the assay with OA-affected cartilage [5] (Homo sapiens, Table 2, 5 μg/ml) came to 58%; in the assay on OA-affected cartilage [6] (Homo sapiens, Table 2, 5 μg/ml), 40%. Further, the PGE2 with OA-affected cartilage [5] (Table 2, 5 μg/ml) turned out to be 94.7 ± 39.2 ng/mL. In addition, the “Effect on spontaneous TNFα release” value with TNFα is listed as “inhibit the spontaneous TNFα release”. For the same compound, the “Inhibition of TNFα (summary statement)” value with TNFα (HEK 293 cells transfected with proTNFα cDNA, low levels) is reported as “inhibiting TNFα”. Also, the “Effect on specific activity of COX-2” value on COX-2 [7] (CMT-3 27 μM, CMT-8 27 μM, aspirin 56 μM, indomethacin 28 μM, words) is “significantly inhibited the specific activity of COX-2”. Also, at COX-2 [7] (Table 3, cell-free extracts, 10 μg (aspirin amount not given)), the “COX-2 Specific Activity” value is reported as 4.3 ± 0.1 PGE2 ng/mg protein. Also, in the assay on COX-2 [8], the “Effect on COX-2 expression” value was “inhibits COX-2 expression and PGE2 production”. The “Effect on iNOS mRNA expression” value with iNOS mRNA was “inhibiting iNOS mRNA expression”. Also, the Antimicrobial activity result in assay [9] is listed as “no antimicrobial activity”.

On to `CN=C(N)NCCC[C@H](N)C(=O)O` [L-NMMA, N^G -monomethyl-L-arginine acetate, reference compound], for which the “Effect on PGE2 production” value in the assay with RAW 264.7 cells [1] (FIG. 1, LPS 100 ng/ml, 16 hours, words) is “augments PGE2 production”; in the assay with bovine chondrocytes [3], “augments PGE2 production”; in the assay on OA-affected cartilage [10] it was “augments PGE2 production”; in the assay on NOS, “augmenting PGE2 production”. Also, the “Effect on NO production” value in the assay on RAW 264.7 cells [2] (FIG. 1, words) is “blocks NO production”; in the assay with bovine chondrocytes [4], “inhibits NO production”. Moreover, in the assay on OA-affected cartilage [11], the “Effect on NOS and NO production” value was “inhibits NOS and NO production”. In addition, the “Effect on production of NO” value in the assay with NOS is reported as “inhibit the production of NO”.

For `C[C@H]1c2cccc(O)c2C(O)=C2C(=O)[C@]3(O)C(O)=C(C(N)=O)C(=O)[C@@H](N(C)C)[C@@H]3[C@@H](O)[C@@H]21` [Doxycycline, doxycycline, reference compound], the “Effect on PGE2 production” value with OA-affected cartilage [5] was “up-regulate COX-2 expression and PGE2 production”. Further, the “Effect on NO production” value with OA-affected cartilage [6] is “inhibit NO production”. Further, the “Effect on spontaneous TNFα release” value in the assay on TNFα is given as “inhibit TNFα release”. The “Effect on COX-2 expression” value in the assay on COX-2 [8] was “up-regulate COX-2 expression and PGE2 production”. The “Severity of OA” value in the assay with OA is listed as “markedly reduced the severity of OA”.
